Source: the supplement of paper PMC10307832

Columns and labels:
Assay in all cases: relative viability (nuclei count vs DMSO), 5 days (fraction); higher = more cells survive
Midostaurin + Navitoclax = compound: CO[C@@H]1[C@H](N(C)C(=O)c2ccccc2)C[C@H]2O[C@]1(C)n1c3ccccc3c3c4c(c5c6ccccc6n2c5c31)C(=O)NC4 [Midostaurin] + CC1(C)CCC(c2ccc(Cl)cc2)=C(CN2CCN(c3ccc(C(=O)NS(=O)(=O)c4ccc(N[C@H](CCN5CCOCC5)CSc5ccccc5)c(S(=O)(=O)C(F)(F)F)c4)cc3)CC2)C1 [Navitoclax] (partner 0.5 µM)
Procedure, shortened: (§1)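 Relative viability was taken as the ratio of nuclei in treated wells to nuclei in vehicle wells. Lung cancer cell lines in 1536-well plates received compounds by pin tool one day after seeding, either one drug alone or a fixed anchor-drug dose plus five library-drug doses (not always all listed) in √10 steps. Nuclei were counted on 4× images after 5 days of treatment, and values are medians of duplicate plates.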

Midostaurin + Phenformin = compound: CO[C@@H]1[C@H](N(C)C(=O)c2ccccc2)C[C@H]2O[C@]1(C)n1c3ccccc3c3c4c(c5c6ccccc6n2c5c31)C(=O)NC4 [Midostaurin] + N=C(N)NC(=N)NCCc1ccccc1 [Phenformin] (partner 250 µM)
Procedure, shortened: as §1

Midostaurin + Vorinostat = compound: CO[C@@H]1[C@H](N(C)C(=O)c2ccccc2)C[C@H]2O[C@]1(C)n1c3ccccc3c3c4c(c5c6ccccc6n2c5c31)C(=O)NC4 [Midostaurin] + O=C(CCCCCCC(=O)Nc1ccccc1)NO [Vorinostat] (partner 1 µM)
Procedure, shortened: as §1

[1] = compound: COc1cc(-c2nn([C@H]3CC[C@H](N4CCN(C(C)=O)CC4)CC3)c3ncnc(N)c23)ccc1NC(=O)c1cc2ccccc2n1C + CCNC(=O)c1noc(-c2cc(C(C)C)c(O)cc2O)c1-c1ccc(CN2CCOCC2)cc1 [Luminespib] (partner 0.01 µM)
Procedure, shortened: as §1

[2] = compound: COc1cc(-c2nn([C@H]3CC[C@H](N4CCN(C(C)=O)CC4)CC3)c3ncnc(N)c23)ccc1NC(=O)c1cc2ccccc2n1C + Cc1nc(Nc2ncc(C(=O)Nc3c(C)cccc3Cl)s2)cc(N2CCN(CCO)CC2)n1 [Dasatinib] (partner 0.075 µM)
Procedure, shortened: as §1

Row | Cell Line | relative viability (Midostaurin + Navitoclax; first compound 0.01 µM) | relative viability (Midostaurin + Navitoclax; first compound 0.03162 µM) | relative viability (Midostaurin + Navitoclax; first compound 0.1 µM) | relative viability (Midostaurin + Navitoclax; first compound 0.3162 µM) | relative viability (Midostaurin + Phenformin; first compound 0.01 µM) | relative viability (Midostaurin + Phenformin; first compound 0.03162 µM) | relative viability (Midostaurin + Phenformin; first compound 0.1 µM) | relative viability (Midostaurin + Phenformin; first compound 0.3162 µM) | relative viability (Midostaurin + Vorinostat; first compound 0.01 µM) | relative viability (Midostaurin + Vorinostat; first compound 0.03162 µM) | relative viability (Midostaurin + Vorinostat; first compound 0.1 µM) | relative viability (Midostaurin + Vorinostat; first compound 0.3162 µM) | relative viability ([1]; first compound 0.0128 µM) | relative viability ([1]; first compound 0.04048 µM) | relative viability ([1]; first compound 0.128 µM) | relative viability ([1]; first compound 1.28 µM) | relative viability ([2]; first compound 0.0128 µM) | relative viability ([2]; first compound 0.04048 µM) | relative viability ([2]; first compound 0.128 µM) | relative viability ([2]; first compound 1.28 µM)
1 | HCC-827 | 1.03 | 0.987 | 0.958 | 1.1 | 0.364 | 0.369 | 0.449 | 0.422 | 0.869 | 0.724 | 0.897 | 0.873 | 0.633 | 0.66 | 0.816 | 0.203 | 0.311 | 0.313 | 0.281 | 0.275
2 | LK-2 | 0.831 | 0.876 | 0.843 | 0.825 | 0.425 | 0.571 | 0.492 | 0.374 | 0.252 | 0.258 | 0.328 | 0.277 | 0.21 | 0.171 | 0.21 | 0.159 | 0.312 | 0.264 | 0.326 | 0.417
3 | BEN | 0.0719 | 0.0568 | 0.0815 | 0.064 | 0.298 | 0.235 | 0.245 | 0.243 | 0.594 | 0.552 | 0.707 | 0.598 | 0.156 | 0.398 | 0.36 | 0.259 | 0.251 | 0.32 | 0.351 | 0.318
4 | NCI-H23 | 0.875 | 0.95 | 0.396 | 0.788 | 0.713 | 0.798 | 0.773 | 0.772 | 0.514 | 0.68 | 0.54 | 0.243 | 0.198 |  | 0.201 | 0.191 | 0.736 | 0.469 | 0.778 | 0.741
5 | NCI-H1395 | 1.11 | 1.09 | 1.17 | 1.25 | 0.459 | 0.459 | 0.488 | 0.523 | 0.651 | 0.856 | 0.671 | 0.682 | 0.631 | 0.651 | 0.646 | 0.398 | 0.414 | 0.464 | 0.465 | 0.449
